# Columns and labels:
# human insulin receptor = target: T1, human insulin receptor (Homo sapiens, UniProt P06213); experiment: Whole-cell phosphorylation assay (3T3HIR cells); type: cell-based; conditions: 15 min, anti-phosphotyrosine Western, various concentrations (FIG. 2)
# T1 construct: expressed in transfected cells; host or cells: NIH 3T3 (3T3HIR)
# Experimental: Whole-cell Phosphorylation Assay:
# The initial step in insulin signaling is phosphorylation of the insulin receptor in response to insulin binding. NIH 3T3 cells overexpressing human insulin receptor (3T3HIR) were grown for 2 days at a density of 2×10^5/ml cells in 6 well culture dishes in DMEM with 10% FBS and L-glutamine. Prior to the experiment the cells were serum-starved overnight with DMEM with 0.1% BSA. The following morning, the cells were washed with PBS and the medium was replaced with 150 mM NaCl, 1.7 mM KCl, 0.9 mM CaCl2, K2HPO4 (pH 7.4), to which were added either the experimental compounds, or their vehicle (DMSO). Insulin or its vehicle (0.01% BSA) was diluted in the assay buffer (containing test compound or vehicle, respectively) to a final concentration of 2.5 nM. After incubating for 15 min, the cells were washed with cold PBS twice and lysed in 50 mM Tris.HCl, pH 7.4 150 mM NaCl, 0.25% sodium deoxycholate, 1% NP-40, 1 mM EGTA, 1 mM PMSF, 1 mM Na3VO4, 1 mM NaF, 1 ug/ml each of Aprotinin, Leupeptin and Pepstatin. The cell lysates were clarified by centrifugation at 12000 rpm, and the supernatants were estimated for protein concentration. Total cell lysate ([…]) was boiled with 2× SDS-PAGE sample buffer for 3 min and loaded into 7.5% SDS-PAGE along with Amersham rainbow marker protein as a molecular weight standard. […]
# 3T3 L1 fibroblasts = experiment: Glucose transport activity assay (14C-2-deoxy-D-glucose uptake); type: cell-based
# Summary of the method: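 Differentiated 3T3 L1 adipocytes (IBMX/dexamethasone/insulin induction), serum-starved overnight, preincubated 30 min at 37 °C with compound ± insulin in pH 7.4 salt buffer, then 30 min with 5 μCi/ml 14C-2-deoxy-D-glucose. Lysate radioactivity counted; EC = concentration raising uptake above 150% of vehicle control.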
# [1] = tested on: GLUT4 in 3T3 L1 adipocytes; experiment: Immunofluorescence analysis of GLUT4 mobilization; type: cell-based; conditions: 56 μM Compound 15 alone, 1 hr at 37° C. (FIG. 6C)
# Experimental: Immunofluorescence Analysis of GLUT4 Mobilization in 3T3 L1 Adipocytes Insulin-dependent transport of glucose into cells utilizes glucose transporter proteins, such as GLUT4. Stimulation with insulin causes these transporters to translocate from storage sites within the cell to the cell membrane, where they facilitate glucose entry. 3T3 L1 adipocytes were grown and differentiated as in Example 11, except that they were grown on a microscope chamber slide. The cells were serum-starved with 0.1% BSA in DMEM for 16 hrs and stimulated with 56 μM Compound 15 alone, 100 nM Insulin for 1 hr at 37° C. The cells were fixed with 3.5% paraformaldehyde for 5 min and permeabilized with 0.2% saponin in 1% BSA, TBS for 5 min followed by incubation with anti-GLUT4 antibody for 30 min at room temperature. The cells were extensively washed and incubated with FITC-conjugated secondary antibody for 30 min at room temperature.
# STZ/HFD rats = experiment: Multi-dosing in STZ/HFD rats; type: in vivo, rat; conditions: 30 mg/kg oral daily, 3 days (FIG. 14)
# Experimental: Multi-Dosing in STZ/HFD Rats
# STZ/HFD rats were prepared as in example 19. Compound 15 or an equivalent amount of the vehicle (PBS) was administered daily by the oral route at a dose of 30 mg/kg. Blood samples were taken by an IACUC-approved protocol (tail cap method) immediately before each dose and 4 and 6 (day one only) hours later. Blood glucose levels were measured using a Glucometer Elite (Bayer, Elkhart, Ind.). The blood glucose levels of the vehicle-treated group fell over the course of the experiment as the animals recovered from the low dose of STZ (FIG. 14).
# CYP1A2 = CYP1A2 (Homo sapiens, UniProt P05177); experiment: P450 interactions: CYP1A2 inhibition; type: in vitro ADME; conditions: human cytochromes P450
# Source text: (§1) A major pathway for elimination of drugs from the body, which may limit their effectiveness, is the cytochrome P450 system of the liver.
# CYP2C19 = CYP2C19 (Homo sapiens, UniProt P33261); experiment: P450 interactions: CYP2C19 inhibition; type: in vitro ADME; conditions: human cytochromes P450
# Source text: as §1
# Sequence of CYP2C19 (P33261 whole entry): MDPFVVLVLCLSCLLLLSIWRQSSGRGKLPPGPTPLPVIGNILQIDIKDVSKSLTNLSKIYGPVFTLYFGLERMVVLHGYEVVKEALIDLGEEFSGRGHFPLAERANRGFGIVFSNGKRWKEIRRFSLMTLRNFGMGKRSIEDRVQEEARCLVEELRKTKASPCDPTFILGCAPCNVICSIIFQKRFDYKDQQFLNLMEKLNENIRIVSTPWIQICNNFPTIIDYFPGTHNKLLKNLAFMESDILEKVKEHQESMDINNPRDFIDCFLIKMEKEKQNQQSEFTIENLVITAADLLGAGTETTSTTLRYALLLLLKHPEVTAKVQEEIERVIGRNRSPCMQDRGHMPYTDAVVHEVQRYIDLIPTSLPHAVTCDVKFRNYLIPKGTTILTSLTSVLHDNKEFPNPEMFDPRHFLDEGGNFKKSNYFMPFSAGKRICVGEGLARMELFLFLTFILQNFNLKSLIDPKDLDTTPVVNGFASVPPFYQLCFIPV
# T1 sequence (P06213 763-1382 limits assumed): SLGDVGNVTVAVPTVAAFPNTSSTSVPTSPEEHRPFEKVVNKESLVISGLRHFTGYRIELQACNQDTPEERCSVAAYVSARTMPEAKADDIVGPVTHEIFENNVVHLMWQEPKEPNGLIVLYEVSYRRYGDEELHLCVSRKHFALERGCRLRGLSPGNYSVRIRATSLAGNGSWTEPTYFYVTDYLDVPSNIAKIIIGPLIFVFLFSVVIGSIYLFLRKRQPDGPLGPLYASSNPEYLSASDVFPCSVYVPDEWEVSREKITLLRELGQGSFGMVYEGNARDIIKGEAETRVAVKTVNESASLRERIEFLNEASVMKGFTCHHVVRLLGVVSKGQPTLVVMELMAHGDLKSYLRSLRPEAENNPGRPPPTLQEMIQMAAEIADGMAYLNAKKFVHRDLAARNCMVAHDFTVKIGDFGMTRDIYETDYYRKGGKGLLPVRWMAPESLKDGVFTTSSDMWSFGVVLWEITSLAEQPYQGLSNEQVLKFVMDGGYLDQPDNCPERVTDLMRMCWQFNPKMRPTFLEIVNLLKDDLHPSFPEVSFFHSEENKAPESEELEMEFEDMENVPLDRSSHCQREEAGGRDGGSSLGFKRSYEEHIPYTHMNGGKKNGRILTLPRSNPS
# T1 sequence (P06213 28-758 partner limits assumed): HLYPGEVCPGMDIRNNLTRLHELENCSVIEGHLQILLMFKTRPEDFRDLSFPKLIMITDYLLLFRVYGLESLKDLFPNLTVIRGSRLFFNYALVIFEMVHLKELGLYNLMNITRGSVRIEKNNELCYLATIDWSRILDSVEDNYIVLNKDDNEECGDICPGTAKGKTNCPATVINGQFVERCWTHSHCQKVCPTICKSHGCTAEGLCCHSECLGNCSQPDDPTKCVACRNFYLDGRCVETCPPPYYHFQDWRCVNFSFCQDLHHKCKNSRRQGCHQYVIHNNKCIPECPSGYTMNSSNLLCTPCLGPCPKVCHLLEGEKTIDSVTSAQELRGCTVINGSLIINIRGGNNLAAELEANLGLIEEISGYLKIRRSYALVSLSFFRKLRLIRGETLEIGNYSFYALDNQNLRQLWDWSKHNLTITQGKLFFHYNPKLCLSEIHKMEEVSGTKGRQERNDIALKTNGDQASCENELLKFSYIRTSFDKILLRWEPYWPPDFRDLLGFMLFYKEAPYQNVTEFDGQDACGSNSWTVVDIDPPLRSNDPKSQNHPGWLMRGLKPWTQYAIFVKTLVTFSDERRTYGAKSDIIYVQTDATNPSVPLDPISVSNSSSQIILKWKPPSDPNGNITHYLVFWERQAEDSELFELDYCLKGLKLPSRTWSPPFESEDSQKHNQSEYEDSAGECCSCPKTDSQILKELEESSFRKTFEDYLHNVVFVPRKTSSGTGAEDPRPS
# Sequence of CYP1A2 (P05177 whole entry): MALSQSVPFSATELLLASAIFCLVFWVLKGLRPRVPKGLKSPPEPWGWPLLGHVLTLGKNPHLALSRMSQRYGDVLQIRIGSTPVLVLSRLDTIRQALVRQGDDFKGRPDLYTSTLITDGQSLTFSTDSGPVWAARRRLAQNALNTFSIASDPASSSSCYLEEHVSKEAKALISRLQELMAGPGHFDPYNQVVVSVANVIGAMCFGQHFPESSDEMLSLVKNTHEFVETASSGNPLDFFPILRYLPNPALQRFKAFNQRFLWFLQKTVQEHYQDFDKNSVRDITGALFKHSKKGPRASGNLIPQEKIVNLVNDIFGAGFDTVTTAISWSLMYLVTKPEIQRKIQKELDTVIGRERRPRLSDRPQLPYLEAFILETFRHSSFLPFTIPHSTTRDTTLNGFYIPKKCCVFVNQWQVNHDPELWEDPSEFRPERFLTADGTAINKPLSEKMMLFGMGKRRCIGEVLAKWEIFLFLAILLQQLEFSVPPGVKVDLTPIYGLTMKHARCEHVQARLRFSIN
smiles,measurement,setting,value
"O=C(Nc1ccc2c(O)cc(S(=O)(=O)Nc3cccc(S(=O)(=O)O)c3)cc2c1)Nc1ccc2c(O)cc(S(=O)(=O)Nc3cccc(S(=O)(=O)O)c3)cc2c1 [Compound 15, 3-{[(4-hydroxy-7-{[N-(5-hydroxy-7-{[(3-sulfophenyl)amino]sulfonyl}(2-naphthyl))carbamoyl]amino}-2-naphthyl)sulfonyl]amino}benzenesulfonic acid]",autophosphorylation of the insulin receptor in whole cells,human insulin receptor,increase of autophosphorylation
same,EC (150% of vehicle control),"3T3 L1 fibroblasts; Mus musculus, EC (effective concentration) for increase in glucose transport, 14C-2-deoxy-D-glucose, 3T3 L1 cells, read-out: Concentration (μM) to reach >150% activity of vehicle control",3.2 µM
same,glucose uptake of cells,3T3 L1 fibroblasts; in the presence or absence of insulin (FIG. 3),increase in glucose uptake of cells
same,GLUT4 translocation (immunofluorescence),[1],produced apparent translocation of GLUT4 to the cell surface
same,blood glucose levels versus vehicle-treated group,STZ/HFD rats,lowered blood glucose levels below those of the vehicle-treated group by 6 hours after administration
same,inhibition of catalytic activity of CYP1A2,CYP1A2,did not inhibit
same,inhibition of catalytic activity of CYP2C19,CYP2C19,did not inhibit

# Source: patent US7071231B2, “Naphthalene ureas as glucose uptake enhancers” (Telik, Inc., priority 1999, dated 2006)
